pIC50: −log10 of the molar value.

This passage reports IC50 results from patent publication US8648066B2 (Exelixis, Inc., priority 2009, dated 2014).

This assay concerns the target mTOR/GbL/Raptor (mTORC1) (Homo sapiens, UniProt P42345). The experiment in a line: mTOR/GbL/Raptor (mTORC1) ELISA assay. It is filed as biochemical. To be noted: phosphorylation of 4E-BP1; 0.2 nM mTORC1, 10 μM ATP; read-out: IC50 in this assay (mTORC1 ELISA). As for the experimental part: The measurement of mTORC1 enzyme activity was performed in an ELISA assay format following the phosphorylation of 4E-BP1 protein. All experiments were performed in the 384-well format. Generally, 0.5 μL DMSO containing varying concentrations of the test Compound was mixed with 15 μL enzyme solution. Kinase reactions were initiated with the addition of 15 μL of substrates-containing solution. The assay conditions were as follows; 0.2 nM mTORC1, 10 μM ATP and 50 nM NHis-tagged 4E-BP1 in 20 mM Hepes, pH 7.2, 1 mM DTT, 50 mM NaCl, 10 mM MnCl2, 0.02 mg/mL BSA, 0.01% CHAPS, 50 mM β-glycerophosphate. Following an incubation of 120 minutes at ambient temperature, 20 μL of the reaction volume was transferred to a Ni-Chelate-coated 384-well plate. The binding step of the 4E-BP1 protein proceeded for 60 minutes, followed by washing 4 times each with 50 μL of Tris-buffered saline solution (TBS). Anti-phospho-4E-BP1 rabbit-IgG (20 μL, 1:5000) in 5% BSA-TBST (0.2% Tween-20 in TBS) was added and further incubated for 60 minutes. Incubation with a secondary HRP-tagged anti-IgG was similarly performed after washing off the primary antibody (4 washes of 50 μL). Following the final wash step with TBST, 20 μL of SuperSignal ELISA Femto (Pierce Biotechnology) was added and the luminescence measured using an EnVision plate reader.

As usually defined, the pIC50 is the IC50 on a negative log10 scale, so that one unit is a factor of ten. Turning to `CC[C@@H](C)NCc1nc2c(c(N3CCOc4ccc(-c5cnc6nc(C)[nH]c6c5)cc4C3)n1)CC(C)(C)CC2` [Example 300, (2R)-N-({6,6-dimethyl-4-[7-(2-methyl-1H-imidazo[4,5-b]pyridin-6-yl)-2,3-dihydro-1,4-benzoxazepin-4(5H)-yl]-5,6,7,8-tetrahydroquinazolin-2-yl}methyl)butan-2-amine], the pIC50 is 7.30 to 8.00.

Consider `CC[C@H]1CCc2c(nc(CN(C)C)nc2N2CCOc3ccc(-c4cnc5nc(C)[nH]c5c4)cc3C2)C1` [Example 334, 1-{(7S)-7-ethyl-4-[7-(2-methyl-1H-imidazo[4,5-b]pyridin-6-yl)-2,3-dihydro-1,4-benzoxazepin-4(5H)-yl]-5,6,7,8-tetrahydroquinazolin-2-yl}-N,N-dimethylmethanamine], for which the pIC50 was 7.30 to 8.00. Regarding `COC(=O)Nc1nc2ccc(-c3ccc4c(c3)CN(c3ccncn3)CCO4)cc2[nH]1` [Example 107, methyl-6[(4-pyrimidin-4-yl-2,3,4,5-tetrahydro-1,4-benzoxazepin-7-yl)-1H-benzimidazol-2-yl]carbamate], the negative logarithm of the IC50 (pIC50) is at most 5.70. The value for `Cc1nc2ncc(-c3ccc4c(c3)CN(c3ncnc5c3CCC(C(C)O)C5)CCO4)cc2[nH]1` (centres unmarked) [Example 340, 1-{4-[7-(2-methyl-1H-imidazo[4,5-b]pyridin-6-yl)-2,3-dihydro-1,4-benzoxazepin-4(5H)-yl]-5,6,7,8-tetrahydroquinazolin-7-yl}ethanol] was 6.60 to 7.30.

In the case of `COc1ccc2nc(Cl)nc(N3CCOc4ccc(-c5ccc6nc(C)[nH]c6c5)cc4C3)c2c1` [Example 33, 4-[2-chloro-6-(methyloxy)quinazolin-4-yl]-7-(2-methyl-1H-benzimidazol-6-yl)-2,3,4,5-tetrahydro-1,4-benzoxazepine], the negative logarithm of the IC50 (pIC50) is 6.00 to 6.60. The result for `COCCOc1ccc2ncnc(N3CCOc4ccc(-c5ccc6nc(C)[nH]c6c5)cc4C3)c2c1` [Example 163, 7-(2-methyl-1H-benzimidazol-6-yl)-4-(6-{[2-(methyloxy)ethyl]oxy}quinazolin-4-yl)-2,3,4,5-tetrahydro-1,4-benzoxazepine] reads at most 5.70; that for `COc1ccc(-c2ccc3c(c2)CN(c2nc(CN(C)C)nc4c2CC(C)(C)CC4)CCO3)cc1C(C)=O` [Example 650, 1-[5-(4-{2-[(dimethylamino)methyl]-6,6-dimethyl-5,6,7,8-tetrahydroquinazolin-4-yl}-2,3,4,5-tetrahydro-1,4-benzoxazepin-7-yl)-2-(methyloxy)phenyl]ethanone], 6.60 to 7.30; that for `CC[C@H]1CCc2c(ncnc2N2CCOc3ccc(-c4cnc(N)c(S(=O)(=O)N5C[C@@H]6C[C@H]5CN6)c4)cc3C2)C1` [Example 437, 3-[(1S,4S)-2,5-diazabicyclo[2.2.1]hept-2-ylsulfonyl]-5-{4-[(7S)-7-ethyl-5,6,7,8-tetrahydroquinazolin-4-yl]-2,3,4,5-tetrahydro-1,4-benzoxazepin-7-yl}pyridin-2-amine], 7.30 to 8.00.

With `CCc1nc2ncc(-c3ccc4c(c3)CN(c3nc(C)nc5c3CC(C)(C)CC5)CCO4)cc2[nH]1` [Example 548, 7-(2-ethyl-1H-imidazo[4,5-b]pyridin-6-yl)-4-(2,6,6-trimethyl-5,6,7,8-tetrahydroquinazolin-4-yl)-2,3,4,5-tetrahydro-1,4-benzoxazepine], the pIC50 was at least 8.00. As for `COc1c(OCC(C)C)ccc2c(N3CCOc4ccc(-c5ccc6nc(C)[nH]c6c5)cc4C3)ncnc12` [Example 166, 7-(2-methyl-1H-benzimidazol-6-yl)-4-{8-(methyloxy)-7-[(2-methylpropyl)oxy]quinazolin-4-yl}-2,3,4,5-tetrahydro-1,4-benzoxazepine], the negative-log IC50 (pIC50) was 6.00 to 6.60. With `CCNc1ncnc(N2CCOc3ccc(-c4cnc5nc(C)[nH]c5c4)cc3C2)c1C` [Example 639, N-ethyl-5-methyl-6-[7-(2-methyl-1H-imidazo[4,5-b]pyridin-6-yl)-2,3-dihydro-1,4-benzoxazepin-4(5H)-yl]pyrimidin-4-amine], the pIC50 was 6.00 to 6.60.
